From patent US20180098959A1, “METHODS FOR TREATING CANCER” (BOSTON BIOMEDICAL, INC., priority 2015, published 2018)
“Also recorded” adds a separate entry of the source. Where two headings read alike, the source gives them in different places.

Tests used:
mCRC = conditions: Single Agent, panitumumab value for K-Ras WT, cited from earlier work
hepatocellular carcinoma = test: combination with FOLFOX, hepatocellular carcinoma patients; format: in vivo, human; conditions: Chemo Backbone FOLFOX
Protocol: The effects of 2-acetylnaphtho[2,3-b]furan-4,9-dione in combination with FOLFOX were assessed in adult patients with hepatocellular carcinoma in a clinical study.
Patients who were pretreated with 1 and 4 lines of prior treatment, respectively, received oral administration of 2-acetylnaphtho[2,3-b]furan-4,9-dione twice daily together with FOLFOX. For example, 2-acetylnaphtho[2,3-b]furan-4,9-dione was administered at a dose of 240 mg BID in combination with FOLFOX. Oxaliplatin 85 mg/m^2 together with leucovorin 400 mg/m^2 were administered intravenously. 5-FU 400 mg/m^2 bolus was administered intravenously immediately following oxaliplatin/leucovorin infusion, followed by 5-FU 1200 mg/m^2/day (total 2400 mg/m^2 over 46-48 hours) continuous intravenous infusion. This regimen was repeated every 14 days thereafter or until progression of disease, unacceptable toxicity, or other discontinuation criterion was met.

[1] = system: esophageal adenocarcinoma; test: combination with CAPDX regimen, esophageal adenocarcinoma patients; format: in vivo, human; conditions: Chemo Backbone CAPOX, 0 prior lines
Protocol: The effects of 2-acetylnaphtho[2,3-b]furan-4,9-dione in combination with capecitabine as part of a CAPDX regimen was assessed in adult patients with esophageal adenocarcinoma.
Four patients aged 58-82 who were pretreated with 0-3 lines of prior treatment received oral administration of 2-acetylnaphtho[2,3-b]furan-4,9-dione twice daily together with CAPDX. For example, 2-acetylnaphtho[2,3-b]furan-4,9-dione was administered at a dose of 240 mg BID or 480 mg BID in combination with CAPDX until progression of disease, unacceptable toxicity, or other discontinuation criterion was met. CAPDX was administered orally (capecitabine) and IV (oxaliplatin). Capecitabine 850 mg/m^2 was administered orally twice-daily for 14 consecutive days and repeated every 21 days or until progression of disease, unacceptable toxicity, or other discontinuation criterion was met. Oxaliplatin 130 mg/m^2 was administered IV and repeated every 21 days thereafter. If capecitabine was tolerated at the 850 mg/m^2 twice daily dose, dosage was increased to 1000 mg/m^2 twice daily as tolerated after the first cycle.

FaDu cancer stem cells = test: stemness gene expression versus chemo- and targeted therapeutics; format: cell-based; conditions: 24 hours, 2-acetylnaphtho[2,3-b]furan-4,9-dione 2 mM, sunitinib 20 mM, gemcitabine 2 mM, carboplatin 32 mM, FIGS. 4(A)-(D)
Protocol: FIGS. 4(A)-(D) depict FaDu cancer stem cells that were treated for 24 hours with DMSO and: (i) 2-acetylnaphtho[2,3-b]furan-4,9-dione (2 mM) (FIG. 4(A)), (ii) sunitinib (20 mM) (FIG. 4(B)), (iii) gemcitabine (2 mM) (FIG. 4(C)), or (iv) carboplatin (32 mM) (FIG. 4(D)).

FaDu sphere cultures = test: qPCR cancer stem cell array, gene expression after treatment; format: cell-based; design: % Change ATM gene expression / % Change WEE1 gene expression / % Change ACTB gene expression / % Change MERTK gene expression / % Change FGFR2 gene expression / % Change EPCAM gene expression / % Change NOTCH2 gene expression / % Change DDR1 gene expression / % Change STAT3 gene expression / % Change LATS1 gene expression / % Change GSK3B gene expression / % Change TWIST2 gene expression / % Change ITGA2 gene expression / % Change ENG gene expression / % Change PLAUR gene expression / % Change SMO gene expression / % Change DACH1 gene expression / % Change EGF gene expression / % Change TGFBR1 gene expression / % Change ALCAM gene expression / % Change ALDH1A1 gene expression / % Change MAML1 gene expression / % Change HDAC1 gene expression / % Change RPLP0 gene expression / % Change WWC1 gene expression / % Change CD44 gene expression / % Change TAZ gene expression / % Change ITGA6 gene expression / % Change HPRT1 gene expression / % Change JAG1 gene expression / % Change ITGB1 gene expression / % Change IKBKB gene expression / % Change ID1 gene expression / % Change AXL gene expression / % Change DNMT1 gene expression / % Change ITGA4 gene expression / % Change KITLG gene expression / % Change ETFA gene expression / % Change IL8 gene expression / % Change JAK2 gene expression / % Change FOXP1 gene expression / % Change MYC gene expression / % Change NANOG gene expression / % Change YAP1 gene expression / % Change FLOT2 gene expression / % Change KLF17 gene expression / % Change BMI1 gene expression / % Change CHEK1 gene expression / % Change CD34 gene expression / % Change NOTCH1 gene expression / % Change LIN28A gene expression / % Change ATXN1 gene expression / % Change MUC1 gene expression / % Change POU5F1 gene expression / % Change ERBB2 gene expression / % Change CD24 gene expression / % Change PECAM1 gene expression / % Change SIRT1 gene expression / % Change NFKB1 gene expression: dose or concentration left out as unconfirmed
Protocol: Changes in gene expression following treatment with 2-acetylnaphtho[2,3-b]furan-4,9-dione were evaluated using a cancer stem cell PCR array.
FaDu sphere cultures were treated for 6 hours with DMSO (control) or 2-acetylnaphtho[2,3-b]furan-4,9-dione at 2 mM. RNA was isolated, reversed transcribed, and the resulting cDNA was analyzed using a qPCR cancer stem cell array. Glyceraldehyde 3-phosphate dehydrogenase (GAPDH) was used as a housekeeping gene to normalize the data.

p-Stat3 and β-catenin = test: cancer stem cell markers in cancer xenograft models (immunofluorescence); format: in vivo, athymic nude mice; conditions: human colon cancer xenograft Tumor (SW480) in nude mice, tumors harvested after first dosing; FIG. 5
Protocol: The effects of 2-acetylnaphtho[2,3-b]furan-4,9-dione on cancer stem cell markers was also examined in cancer xenograft models with and without irinotecan. Human cancer cells were subcutaneously implanted into the right flank of 5-7 weeks old female athymic nude mice. When tumor size reached 200 mm^3, animals were treated with 2-acetylnaphtho[2,3-b]furan-4,9-dione, irinotecan, or a combination of 2-acetylnaphtho[2,3-b]furan-4,9-dione and irinotecan. Tumors were harvested after first dosing.
The harvested tissues were fixed in 3.7% neutral buffered formaldehyde at 4° C. for overnight. The paraffin was embedded, cut to about 5 microns, and affixed onto positively charged slides. After being baked and de-paraffinized, the slides with tumor or control tissues were incubated in 10 mM Sodium Citrate (pH 6.0) for 10 minutes. After antigen retrieval, slides were probed with primary antibodies P-STAT3 (rabbit, Cell Signaling, 1:100), 13-Catenine (mouse, Santa Cruz, 1:400) at 4° C. overnight, and then Alexa Fluor fluorescent dyes-conjugated secondary antibodies (1:500, Invitrogen). After mounting with ProLong mounting medium with DAPI (Invitrogen), the slides were examined under a Zeiss fluorescence microscope with 20× objective, and analyzed with Zen software.

cancer stem cells = test: effects on cancer stem cells with and without 5-fluorouracil; format: cell-based; conditions: FIG. 7
Source text: The effects on cancer stem cells of 2-acetylnaphtho[2,3-b]furan-4,9-dione was also examined with and without 5-fluorouracil by using methods similar to those disclosed in U.S. pre-grant Publication No. 2012/0252763, Example 3.

[2] = FaDu sphere cultures, 6 hours, GAPDH-normalized, vs DMSO control

panitumumab
Historical DCR (in Evaluable patients with mCRC) (mCRC): 30-40% (K-Ras WT) | Historical DCR (in Evaluable patients with mCRC) (mCRC; listed as panitumumab): 30-40%

CC(=O)c1cc2c(o1)C(=O)c1ccccc1C2=O [2-acetylnaphtho[2,3-b]furan-4,9-dione]
Best Response, regression (hepatocellular carcinoma; Patient 0089, BBI608 240 mg bid, 1 prior line): 9% | Best Response, regression (hepatocellular carcinoma; Patient 0121, BBI608 240 mg bid, 4 prior lines): 9% | Best Response, regression ([1]; Patient 0012, BBI608 240 mg bid): 50% | Best Response, regression ([1]; Patient 0021, BBI608 480 mg bid): 24% | expression of self-renewal / CSC genes (β-Catenin, Nanog, Smo, Sox2) (FaDu cancer stem cells): decreased expression | % Change ACTB gene expression (FaDu sphere cultures; [2]): −24.49% | % Change ALCAM gene expression (FaDu sphere cultures; [2]): −36.13% | % Change ALDH1A1 gene expression (FaDu sphere cultures; [2]): −18.18% | % Change ATM gene expression (FaDu sphere cultures; [2]): −68.65% | % Change ATXN1 gene expression (FaDu sphere cultures; [2]): −45.26% | % Change AXL gene expression (FaDu sphere cultures; [2]): −48.50% | % Change B2M gene expression (FaDu sphere cultures; [2]): −27.69% | % Change BMI1 gene expression (FaDu sphere cultures; [2]): −47.40% | % Change CD24 gene expression (FaDu sphere cultures; [2]): −26.46% | % Change CD34 gene expression (FaDu sphere cultures; [2]): −88.18% | % Change CD44 gene expression (FaDu sphere cultures; [2]): −35.44% | % Change CHEK1 gene expression (FaDu sphere cultures; [2]): −28.88% | % Change DACH1 gene expression (FaDu sphere cultures; [2]): −36.55% | % Change DDR1 gene expression (FaDu sphere cultures; [2]): −38.59% | % Change DNMT1 gene expression (FaDu sphere cultures; [2]): −32.09% | % Change EGF gene expression (FaDu sphere cultures; [2]): −19.07% | % Change ENG gene expression (FaDu sphere cultures; [2]): −37.62% | % Change EPCAM gene expression (FaDu sphere cultures; [2]): −22.87% | % Change ERBB2 gene expression (FaDu sphere cultures; [2]): −43.81% | % Change ETFA gene expression (FaDu sphere cultures; [2]): −31.12% | % Change FGFR2 gene expression (FaDu sphere cultures; [2]): −41.18% | % Change FLOT2 gene expression (FaDu sphere cultures; [2]): −29.19% | % Change FOXP1 gene expression (FaDu sphere cultures; [2]): −29.76% | % Change GSK3B gene expression (FaDu sphere cultures; [2]): −38.06% | % Change HDAC1 gene expression (FaDu sphere cultures; [2]): −36.10% | % Change HPRT1 gene expression (FaDu sphere cultures; [2]): −33.81% | % Change ID1 gene expression (FaDu sphere cultures; [2]): −12.68% | % Change IKBKB gene expression (FaDu sphere cultures; [2]): −32.11% | % Change IL8 gene expression (FaDu sphere cultures; [2]): −7.62% | % Change ITGA2 gene expression (FaDu sphere cultures; [2]): −60.71% | % Change ITGA4 gene expression (FaDu sphere cultures; [2]): −11.52% | % Change ITGA6 gene expression (FaDu sphere cultures; [2]): −54.63% | % Change ITGB1 gene expression (FaDu sphere cultures; [2]): −50.45% | % Change JAG1 gene expression (FaDu sphere cultures; [2]): −14.24% | % Change JAK2 gene expression (FaDu sphere cultures; [2]): −47.94% | % Change KITLG gene expression (FaDu sphere cultures; [2]): −47.99% | % Change KLF17 gene expression (FaDu sphere cultures; [2]): −90.18% | % Change LATS1 gene expression (FaDu sphere cultures; [2]): −60.75% | % Change LIN28A gene expression (FaDu sphere cultures; [2]): −87.52% | % Change MAML1 gene expression (FaDu sphere cultures; [2]): −52.82% | % Change MERTK gene expression (FaDu sphere cultures; [2]): −65.78% | % Change MUC1 gene expression (FaDu sphere cultures; [2]): −27.42% | % Change MYC gene expression (FaDu sphere cultures; [2]): −3.91% | % Change NANOG gene expression (FaDu sphere cultures; [2]): −93.34% | % Change NFKB1 gene expression (FaDu sphere cultures; [2]): −25.54% | % Change NOTCH1 gene expression (FaDu sphere cultures; [2]): −46.24% | % Change NOTCH2 gene expression (FaDu sphere cultures; [2]): −64.37% | % Change PECAM1 gene expression (FaDu sphere cultures; [2]): −70.26% | % Change PLAUR gene expression (FaDu sphere cultures; [2]): −20.64% | % Change POU5F1 gene expression (FaDu sphere cultures; [2]): −77.31% | % Change RPLP0 gene expression (FaDu sphere cultures; [2]): −17.48% | % Change SIRT1 gene expression (FaDu sphere cultures; [2]): −43.35% | % Change SMO gene expression (FaDu sphere cultures; [2]): −55.56% | % Change STAT3 gene expression (FaDu sphere cultures; [2]): −22.87% | % Change TAZ gene expression (FaDu sphere cultures; [2]): −15.09% | % Change TGFBR1 gene expression (FaDu sphere cultures; [2]): −53.34% | % Change TWIST2 gene expression (FaDu sphere cultures; [2]): −21.59% | % Change WEE1 gene expression (FaDu sphere cultures; [2]): −42.86% | % Change WWC1 gene expression (FaDu sphere cultures; [2]): −51.64% | % Change YAP1 gene expression (FaDu sphere cultures; [2]): −47.45% | expression of cancer stem cell markers and genes such as Nanog, Axl, Atm, and Bmi-1 (FaDu sphere cultures; cancer stem cell PCR array): downregulated | expression of p-Stat3 and β-catenin stem cell markers (p-Stat3 and β-catenin): dramatically reduced expression

Nc1ccn([C@@H]2O[C@H](CO)[C@@H](O)C2(F)F)c(=O)n1 [gemcitabine]
expression of self-renewal / CSC genes (β-Catenin, Nanog, Smo, Sox2) (FaDu cancer stem cells): increased CSC gene expression in certain cases

O=c1[nH]cc(F)c(=O)[nH]1 [5-fluorouracil, reference compound]
expression of self-renewal / CSC genes (β-Catenin, Nanog, Smo, Sox2) (FaDu cancer stem cells): increased CSC gene expression in certain cases | increase in the number of cancer stem cells compared to control cells (cancer stem cells): approximately 3 fold

5-fluorouracil and 2-acetylnaphtho[2,3-b]furan-4,9-dione
effect of the combination on cancer stem cells / cancer stem cell growth (cancer stem cells; versus 5-fluorouracil alone and both agents alone): attenuated; also recorded: greater than additive effect
